# Tested on: MV-4-11 cells
# Assay: Gene expression microarray analysis (Affymetrix PrimeView) and GSEA
# Type: cell-based, human
# Design: RFU PODN (11730768_x_at) / Fold change /veh PODN (11730768_x_at) / RFU LINC00158 (11744669_a_at) / Fold change /veh LINC00158 (11744669_a_at) / RFU DUSP10 (11751237_a_at) / Fold change /veh DUSP10 (11751237_a_at) / RFU ID3 (11757404_x_at) / Fold change /veh ID3 (11757404_x_at) / RFU PLEKHG5 (11737974_s_at) / Fold change /veh PLEKHG5 (11737974_s_at) / RFU LRRC4B (11730491_at) / Fold change /veh LRRC4B (11730491_at) / RFU GIMAP4 (11747438_a_at) / Fold change /veh GIMAP4 (11747438_a_at) / RFU KRT8 (11758183_x_at) / Fold change /veh KRT8 (11758183_x_at) / RFU CNN1 (11734310_a_at) / Fold change /veh CNN1 (11734310_a_at) / RFU VPS37D (11726825_at) / Fold change /veh VPS37D (11726825_at) / RFU C10orf10 (11716522_x_at) / Fold change /veh C10orf10 (11716522_x_at) / RFU KIR2DL2 /// KIR2DL4 /// KIR2DL5A /// KIR2DL5B /// KIR2DS1 /// KIR2DS2 /// KIR2DS3 /// KIR2DS4 /// KIR3DL3 /// KIR3DL3 /// KIR3DS1 (11738374_at) / Fold change /veh KIR2DL2 /// KIR2DL4 /// KIR2DL5A /// KIR2DL5B /// KIR2DS1 /// KIR2DS2 /// KIR2DS3 /// KIR2DS4 /// KIR3DL3 /// KIR3DL3 /// KIR3DS1 (11738374_at) / RFU C1QL1 (11718748_at) / Fold change /veh C1QL1 (11718748_at) / RFU TMPRSS4 (11747572_a_at) / Fold change /veh TMPRSS4 (11747572_a_at) / RFU HAMP (11756126_x_at) / Fold change /veh HAMP (11756126_x_at) / RFU RNFT2 (11725882_a_at) / Fold change /veh RNFT2 (11725882_a_at) / RFU NR4A2 (11747474_a_at) / Fold change /veh NR4A2 (11747474_a_at) / RFU ABCC12 (11746883_a_at) / Fold change /veh ABCC12 (11746883_a_at) / RFU TMEM136 (11760407_x_at) / Fold change /veh TMEM136 (11760407_x_at) / RFU CLDN22 /// WWC2 (11732394_at) / Fold change /veh CLDN22 /// WWC2 (11732394_at) / RFU HLA-DPB1 (11760878_x_at) / Fold change /veh HLA-DPB1 (11760878_x_at) / RFU SPINT1 (11716480_a_at) / Fold change /veh SPINT1 (11716480_a_at) / RFU GAP43 (11754022_s_at) / Fold change /veh GAP43 (11754022_s_at) / RFU A4GNT (11735810_at) / Fold change /veh A4GNT (11735810_at) / RFU PRB3 (11715151_x_at) / Fold change /veh PRB3 (11715151_x_at) / RFU TUBB4B (11761932_at) / Fold change /veh TUBB4B (11761932_at) / RFU CAPN14 (11732068_a_at) / Fold change /veh CAPN14 (11732068_a_at) / RFU TMCC2 (11721928_a_at) / Fold change /veh TMCC2 (11721928_a_at) / RFU IRGQ (11745062_a_at) / Fold change /veh IRGQ (11745062_a_at) / RFU FAM174B (11720279_a_at) / Fold change /veh FAM174B (11720279_a_at) / RFU TMPRSS4 (11748680_a_at) / Fold change /veh TMPRSS4 (11748680_a_at) / RFU FAM212B (11763350_a_at) / Fold change /veh FAM212B (11763350_a_at) / RFU PLEKHG5 (11743358_a_at) / Fold change /veh PLEKHG5 (11743358_a_at) / RFU ZSCAN30 (11745921_a_at) / Fold change /veh ZSCAN30 (11745921_a_at) / RFU CMKLR1 (11741424_a_at) / Fold change /veh CMKLR1 (11741424_a_at) / RFU LOC101060620 /// MAPK8IP1 (11723275_at) / Fold change /veh LOC101060620 /// MAPK8IP1 (11723275_at) / RFU SPTSSB (11747773_x_at) / Fold change /veh SPTSSB (11747773_x_at) / RFU PRSS12 (11739890_at) / Fold change /veh PRSS12 (11739890_at) / RFU BIN1 (11741810_x_at) / Fold change /veh BIN1 (11741810_x_at) / RFU WNT11 (11732464_a_at) / Fold change /veh WNT11 (11732464_a_at) / RFU C10orf10 (11716521_a_at) / Fold change /veh C10orf10 (11716521_a_at) / RFU C5orf56 (11738089_at) / Fold change /veh C5orf56 (11738089_at) / RFU CYB561 (11721691_x_at) / Fold change /veh CYB561 (11721691_x_at) / RFU ANKRD19P (11752326_a_at) / Fold change /veh ANKRD19P (11752326_a_at) / RFU OR2T12 /// OR2T33 /// OR2T8 (11738714_s_at) / Fold change /veh OR2T12 /// OR2T33 /// OR2T8 (11738714_s_at) / RFU VCAN (11748164_a_at) / Fold change /veh VCAN (11748164_a_at) / RFU JSRP1 (11732532_at) / Fold change /veh JSRP1 (11732532_at) / RFU KRTAP10-11 (11738290_x_at) / Fold change /veh KRTAP10-11 (11738290_x_at) / RFU MYO3A (11730013_a_at) / Fold change /veh MYO3A (11730013_a_at) / RFU EBF3 (11725865_a_at) / Fold change /veh EBF3 (11725865_a_at) / RFU CAMK2N1 (11719241_x_at) / Fold change /veh CAMK2N1 (11719241_x_at) / RFU C5orf56 (11738088_a_at) / Fold change /veh C5orf56 (11738088_a_at) / RFU OLFML3 (11715873_a_at) / Fold change /veh OLFML3 (11715873_a_at) / RFU LOC100653217 /// NTM (11731650_a_at) / Fold change /veh LOC100653217 /// NTM (11731650_a_at) / RFU MAPK11 (11762145_a_at) / Fold change /veh MAPK11 (11762145_a_at) / RFU FIZ1 (11724087_x_at) / Fold change /veh FIZ1 (11724087_x_at) / RFU OASL (11726364_x_at) / Fold change /veh OASL (11726364_x_at) / RFU SOX15 (11748057_x_at) / Fold change /veh SOX15 (11748057_x_at) / RFU CD79A (11719716_a_at) / Fold change /veh CD79A (11719716_a_at) / RFU HIST1H1D (11736915_at) / Fold change /veh HIST1H1D (11736915_at) / RFU CASKIN2 (11723855_a_at) / Fold change /veh CASKIN2 (11723855_a_at) / RFU LOC730098 (11760151_x_at) / Fold change /veh LOC730098 (11760151_x_at) / RFU OR4N2 (11742367_at) / Fold change /veh OR4N2 (11742367_at) / RFU PRRT2 (11749266_a_at) / Fold change /veh PRRT2 (11749266_a_at) / RFU SNX32 (11753110_a_at) / Fold change /veh SNX32 (11753110_a_at) / RFU CDHR5 (11726645_a_at) / Fold change /veh CDHR5 (11726645_a_at) / RFU RCAN1 (11760418_a_at) / Fold change /veh RCAN1 (11760418_a_at) / RFU FAM167A (11723789_a_at) / Fold change /veh FAM167A (11723789_a_at) / RFU FAM26E (11764081_at) / Fold change /veh FAM26E (11764081_at) / RFU ISYNA1 (11749810_s_at) / Fold change /veh ISYNA1 (11749810_s_at) / RFU ACY1 (11761880_at) / Fold change /veh ACY1 (11761880_at) / RFU 11764098_at / Fold change /veh 11764098_at / RFU SAMD14 (11745864_x_at) / Fold change /veh SAMD14 (11745864_x_at) / RFU NPB (11741838_a_at) / Fold change /veh NPB (11741838_a_at) / RFU TMPRSS6 (11731388_a_at) / Fold change /veh TMPRSS6 (11731388_a_at) / RFU KRTAP10-2 (11738614_at) / Fold change /veh KRTAP10-2 (11738614_at) / RFU ARHGAP8 /// PRR5-ARHGAP8 (11727945_x_at) / Fold change /veh ARHGAP8 /// PRR5-ARHGAP8 (11727945_x_at) / RFU KRTAP5-7 /// NADSYN1 (11734609_at) / Fold change /veh KRTAP5-7 /// NADSYN1 (11734609_at) / RFU RASL12 (11751679_a_at) / Fold change /veh RASL12 (11751679_a_at) / RFU CDKN2B (11736163_a_at) / Fold change /veh CDKN2B (11736163_a_at) / RFU PRF1 (11729649_at) / Fold change /veh PRF1 (11729649_at) / RFU, ZNF638 /// ZNF638-IT1 / Fold change vs veh, ZNF638 /// ZNF638-IT1 / RFU, PANK3 / Fold change vs veh, PANK3 / RFU, SH3YL1 / Fold change vs veh, SH3YL1 / RFU, ZEB2 / Fold change vs veh, ZEB2 / RFU, NRIP1 / Fold change vs veh, NRIP1 / RFU, PTTG1IP / Fold change vs veh, PTTG1IP / RFU, CAPN2 / Fold change vs veh, CAPN2 / RFU, MED14 / Fold change vs veh, MED14 / RFU, SNORA58 / Fold change vs veh, SNORA58 / RFU, C1orf63 / Fold change vs veh, C1orf63 / RFU, LRRFIP1 / Fold change vs veh, LRRFIP1 / RFU, NDUFAF7 / Fold change vs veh, NDUFAF7 / RFU, SLC12A2 / Fold change vs veh, SLC12A2 / RFU, IBTK / Fold change vs veh, IBTK / RFU, ESF1 / Fold change vs veh, ESF1 / Fold change vs veh, TMEM50B / RFU, TAOK1 / Fold change vs veh, TAOK1 / RFU, ACBD3 / Fold change vs veh, ACBD3 / RFU, TMA16 / Fold change vs veh, TMA16 / RFU, RWDD3 / Fold change vs veh, RWDD3 / RFU, BCAT1 / Fold change vs veh, BCAT1 / RFU, EDEM3 / Fold change vs veh, EDEM3 / RFU, TMEM33 / Fold change vs veh, TMEM33 / RFU, WDR75 / Fold change vs veh, WDR75 / RFU, AHCTF1 / Fold change vs veh, AHCTF1 / RFU, TFRC / Fold change vs veh, TFRC / RFU, ZDHHC17 / Fold change vs veh, ZDHHC17 / RFU, NOM1 / Fold change vs veh, NOM1 / RFU, ARL8B / Fold change vs veh, ARL8B / RFU, ZBTB11 / Fold change vs veh, ZBTB11 / RFU, TAMM41 / Fold change vs veh, TAMM41 / RFU, KIAA1704 /// LOC100996395 / Fold change vs veh, KIAA1704 /// LOC100996395 / RFU, ING1 / Fold change vs veh, ING1 / RFU, TRMT61B / Fold change vs veh, TRMT61B / RFU, FUBP3 / Fold change vs veh, FUBP3 / RFU, TP53 / Fold change vs veh, TP53 / RFU, TNKS2 / Fold change vs veh, TNKS2 / RFU, ZFP14 / Fold change vs veh, ZFP14 / RFU, ACTR2 / Fold change vs veh, ACTR2 / RFU, PPP3R1 / Fold change vs veh, PPP3R1 / RFU, PIK3R1 / Fold change vs veh, PIK3R1 / RFU, HNRNPA1 / Fold change vs veh, HNRNPA1 / RFU, RNF170 / Fold change vs veh, RNF170 / RFU, ZNF28 / Fold change vs veh, ZNF28 / RFU, RNGTT / Fold change vs veh, RNGTT / RFU, OGT / Fold change vs veh, OGT / RFU, BRD1 / Fold change vs veh, BRD1 / RFU, MARS / Fold change vs veh, MARS / RFU, ZNF655 / Fold change vs veh, ZNF655 / RFU, FAHD1 / Fold change vs veh, FAHD1 / RFU, BDP1 / Fold change vs veh, BDP1 / RFU, LRRCC1 / Fold change vs veh, LRRCC1 / RFU, ARID1A / Fold change vs veh, ARID1A / RFU, ZNF146 / Fold change vs veh, ZNF146 / RFU, ZNF330 / Fold change vs veh, ZNF330 / RFU, GPN3 / Fold change vs veh, GPN3 / RFU, C9orf123 / Fold change vs veh, C9orf123 / RFU, N4BP2L2 / Fold change vs veh, N4BP2L2 / RFU, ARFIP1 / Fold change vs veh, ARFIP1 / RFU, FAM179B / Fold change vs veh, FAM179B / RFU, BCL10 / Fold change vs veh, BCL10 / RFU, UHRF1BP1L / Fold change vs veh, UHRF1BP1L / RFU, BET1 / Fold change vs veh, BET1 / RFU, CNOT2 / Fold change vs veh, CNOT2 / RFU, ZNF268 / Fold change vs veh, ZNF268 / Fold change vs veh, ZNF507 / RFU, DGCR2 / Fold change vs veh, DGCR2 / RFU, WDSUB1 / Fold change vs veh, WDSUB1 / Fold change vs veh, HSP90B1 /// MIR3652 / RFU, ADSS / Fold change vs veh, ADSS / RFU, GK / Fold change vs veh, GK / RFU, ZNF148 / Fold change vs veh, ZNF148 / RFU, TAF9 / Fold change vs veh, TAF9 / RFU, SLC1A5 / Fold change vs veh, SLC1A5 / RFU, SLMO2 / Fold change vs veh, SLMO2 / RFU, ABCC4 / Fold change vs veh, ABCC4 / RFU, LOC101060439 /// RAP1B / Fold change vs veh, LOC101060439 /// RAP1B / RFU, RFX7 / Fold change vs veh, RFX7 / RFU, GTPBP10 / Fold change vs veh, GTPBP10 / RFU, CNEP1R1 / Fold change vs veh, CNEP1R1 / RFU, BIVM-ERCC5 /// ERCC5 / Fold change vs veh, BIVM-ERCC5 /// ERCC5 / RFU, ILF3 / Fold change vs veh, ILF3 / RFU 11762660_at / Fold change /veh 11762660_at / RFU VCAN (11757783_s_at) / Fold change /veh VCAN (11757783_s_at) / RFU DDX43 (11728927_at) / Fold change /veh DDX43 (11728927_at) / RFU KRT8 (11758188_x_at) / Fold change /veh KRT8 (11758188_x_at) / RFU NKD1 (11759106_at) / Fold change /veh NKD1 (11759106_at) / RFU SRD5A1 (11742802_a_at) / Fold change /veh SRD5A1 (11742802_a_at) / RFU TPSAB1 /// TPSB2 (11721975_s_at) / Fold change /veh TPSAB1 /// TPSB2 (11721975_s_at) / RFU GSTM3 (11746129_a_at) / Fold change /veh GSTM3 (11746129_a_at) / RFU IL23R (11737362_x_at) / Fold change /veh IL23R (11737362_x_at) / RFU TMEM51 (11727254_a_at) / Fold change /veh TMEM51 (11727254_a_at) / RFU PIWIL2 (11732686_x_at) / Fold change /veh PIWIL2 (11732686_x_at) / RFU ORM1 (11744905_x_at) / Fold change /veh ORM1 (11744905_x_at) / RFU CCDC152 (11743942_at) / Fold change /veh CCDC152 (11743942_at) / RFU ECM1 (11717891_a_at) / Fold change /veh ECM1 (11717891_a_at) / RFU IL23R (11748794_a_at) / Fold change /veh IL23R (11748794_a_at) / RFU TNFAIP8L3 (11732012_x_at) / Fold change /veh TNFAIP8L3 (11732012_x_at) / RFU MBOAT4 (11741988_at) / Fold change /veh MBOAT4 (11741988_at) / RFU 11764193_at / Fold change /veh 11764193_at / RFU TMEM53 (11763286_at) / Fold change /veh TMEM53 (11763286_at) / RFU MAGEB2 (11727129_at) / Fold change /veh MAGEB2 (11727129_at) / RFU TMEM200A (11744735_a_at) / Fold change /veh TMEM200A (11744735_a_at) / RFU CCDC152 (11751479_a_at) / Fold change /veh CCDC152 (11751479_a_at) / RFU FAM211A (11726209_a_at) / Fold change /veh FAM211A (11726209_a_at) / RFU RGS16 (11746705_a_at) / Fold change /veh RGS16 (11746705_a_at) / RFU VCAN (11755009_s_at) / Fold change /veh VCAN (11755009_s_at) / RFU RHOB (11743442_s_at) / Fold change /veh RHOB (11743442_s_at) / RFU RGS16 (11720943_a_at) / Fold change /veh RGS16 (11720943_a_at) / RFU RGS16 (11720944_at) / Fold change /veh RGS16 (11720944_at) / RFU, VPS4B / Fold change vs veh, VPS4B / RFU, CREB1 / Fold change vs veh, CREB1 / RFU, DNAJC13 / Fold change vs veh, DNAJC13 / RFU, GNAQ / Fold change vs veh, GNAQ / RFU, CDK5R1 / Fold change vs veh, CDK5R1 / RFU, ZRANB3 / Fold change vs veh, ZRANB3 / RFU, CUL4A / Fold change vs veh, CUL4A / RFU, CCNY / Fold change vs veh, CCNY / RFU, UFL1 / Fold change vs veh, UFL1 / RFU, COG3 / Fold change vs veh, COG3 / RFU, DIAPH2 / Fold change vs veh, DIAPH2 / RFU, SKA2 / Fold change vs veh, SKA2 / RFU, AFF3 / Fold change vs veh, AFF3 / RFU, LMF1 / Fold change vs veh, LMF1 / RFU, IPO11 / Fold change vs veh, IPO11 / RFU, DFFB / Fold change vs veh, DFFB / RFU, FOXP1 / Fold change vs veh, FOXP1 / RFU, CARD8 / Fold change vs veh, CARD8 / RFU, STRN3 / Fold change vs veh, STRN3 / RFU, ADK / Fold change vs veh, ADK / RFU, RASSF2 / Fold change vs veh, RASSF2 / RFU, WIPF1 / Fold change vs veh, WIPF1 / RFU, LARP1B / Fold change vs veh, LARP1B / RFU, RASA1 / Fold change vs veh, RASA1 / RFU, RB1 / Fold change vs veh, RB1 / RFU, PPFIA1 / Fold change vs veh, PPFIA1 / RFU, MAT2A / Fold change vs veh, MAT2A / RFU, CCT5 / Fold change vs veh, CCT5 / RFU, WDR92 / Fold change vs veh, WDR92 / RFU, CUX1 / Fold change vs veh, CUX1 / RFU, TTC7A / Fold change vs veh, TTC7A / RFU, TMEM135 / Fold change vs veh, TMEM135 / RFU, DEPTOR / Fold change vs veh, DEPTOR / RFU, CPM / Fold change vs veh, CPM / RFU, DNAJB6 / Fold change vs veh, DNAJB6 / RFU, CACNA2D3 / Fold change vs veh, CACNA2D3 / RFU, DTX4 / Fold change vs veh, DTX4 / RFU, TFCP2 / Fold change vs veh, TFCP2 / RFU, GMCL1 /// GMCL1P1 / Fold change vs veh, GMCL1 /// GMCL1P1 / RFU, AEBP2 / Fold change vs veh, AEBP2 / RFU, SNHG1 /// SNORD22 /// SNORD25 /// SNORD26 /// SNORD27 /// SNORD28 /// SNORD29 /// SNORD31 / Fold change vs veh, SNHG1 /// SNORD22 /// SNORD25 /// SNORD26 /// SNORD27 /// SNORD28 /// SNORD29 /// SNORD31 / Fold change (Aza/veh), C12orf56 (ProbeSet 11735607_a_at) / Fold change (ACY-1035/veh), C12orf56 (ProbeSet 11735607_a_at) / Fold change (Aza/veh), FGFR1OP (ProbeSet 11751329_s_at) / Fold change (ACY-1035/veh), FGFR1OP (ProbeSet 11751329_s_at) / Fold change (Aza/veh), VPS36 (ProbeSet 11739960_a_at) / Fold change (ACY-1035/veh), VPS36 (ProbeSet 11739960_a_at) / RFU SYPL1 (11715823_x_at) / Fold change /veh SYPL1 (11715823_x_at) / RFU IGFBP7 (11715501_s_at) / Fold change /veh IGFBP7 (11715501_s_at) / RFU REEP3 (11722064_at) / Fold change /veh REEP3 (11722064_at) / RFU IGLL1 (11728026_x_at) / Fold change /veh IGLL1 (11728026_x_at): dose or concentration left out as unconfirmed
# Settings: ProbeSet 11723475_a_at; LIST B
smiles,measurement,value
Nc1ccc(-c2cccs2)cc1NC(=O)c1ccc2c(c1)cc(C1CC1)n2CCN1CCOCC1 [ACY-1035],"RFU, TRMT61B",136.33 RFU

# Source: article PMC5218480 (PLoS ONE, 2017)
